Reference: ChEMBL document CHEMBL1201862, “PubChem BioAssay data set” (2004)
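In this assay, cells in 96-well plates receive the compound at five concentrations for 48 hours. Endpoints are linearly interpolated between the surrounding concentrations. GI50 is the concentration that inhibits growth by half.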 Activity calls are given as the source filed them. No stated cut-off is given here; in the data, active = GI50 up to about 1.1 µM and inactive = higher.

Experiments:
Test in all cases: NCI anticancer screen, dose series, 48 h
A498 = test system: A498
EKVX = test system: EKVX
HCC 2998 = test system: HCC 2998
HCT-116 = test system: HCT-116
HOP-62 = test system: HOP-62
KM12 = test system: KM12
LOX IMVI = test system: LOX IMVI
M14 = test system: M14
M19-MEL = test system: M19-MEL
Malme-3M = test system: Malme-3M
NCI-H23 = test system: NCI-H23
OVCAR-4 = test system: OVCAR-4
RXF 393 = test system: RXF 393
SF-539 = test system: SF-539
SNB-19 = test system: SNB-19
UACC-257 = test system: UACC-257
SR = test system: SR

Measured: GI50

O=S(=O)(O)C(F)(F)C(F)(F)C(F)(F)C(F)(F)F
inactive: A498 43.7 µM | EKVX > 100 µM | HCC 2998 > 100 µM | HCT-116 > 100 µM | HOP-62 > 100 µM | KM12 > 100 µM | LOX IMVI > 100 µM | M14 > 100 µM | M19-MEL > 100 µM | Malme-3M > 100 µM | NCI-H23 > 100 µM | OVCAR-4 > 100 µM | RXF 393 > 100 µM | SF-539 > 100 µM | SNB-19 > 100 µM | UACC-257 > 100 µM

c1ccc(SC(CCCCOC2CCCCO2)Sc2ccccc2)cc1 (stereo unspecified)
inactive: A498 88.7 µM | EKVX > 100 µM | HCC 2998 > 100 µM | HCT-116 47.5 µM | HOP-62 > 100 µM | KM12 > 100 µM | LOX IMVI 65.5 µM | M14 > 100 µM | M19-MEL 46.6 µM | Malme-3M > 100 µM | NCI-H23 40.8 µM | OVCAR-4 55.6 µM | RXF 393 38.8 µM | SF-539 > 100 µM | SNB-19 > 100 µM | UACC-257 63.8 µM

Cc1cc2c(C)n(Cc3ccccc3Cl)nc2c(C(=O)O)c1C
inactive: EKVX > 100 µM | HCC 2998 > 100 µM | HCT-116 > 100 µM | HOP-62 > 100 µM | LOX IMVI > 100 µM | M19-MEL > 100 µM | Malme-3M > 100 µM | NCI-H23 > 100 µM | RXF 393 > 100 µM | SF-539 > 100 µM | SNB-19 > 100 µM | SR > 100 µM | UACC-257 > 100 µM

O=C1c2ccccc2C2C1N2C(=O)C(F)(F)F (stereo unspecified)
inactive: A498 > 100 µM | EKVX > 100 µM | HCT-116 > 100 µM | HOP-62 > 100 µM | KM12 > 100 µM | LOX IMVI 49 µM | M14 > 100 µM | M19-MEL > 100 µM | Malme-3M > 100 µM | NCI-H23 > 100 µM | OVCAR-4 > 100 µM | RXF 393 > 100 µM | SF-539 > 100 µM | SNB-19 > 100 µM | SR 26.9 µM | UACC-257 > 100 µM

Cc1ccc(S(=O)(=O)OCCn2cnc3nc(NC(=O)c4ccccc4)[nH]c(=O)c32)cc1
inactive: A498 > 100 µM | EKVX > 100 µM | HCT-116 > 100 µM | HOP-62 > 100 µM | KM12 > 100 µM | LOX IMVI > 100 µM | M14 > 100 µM | M19-MEL > 100 µM | Malme-3M > 100 µM | OVCAR-4 > 100 µM | RXF 393 > 100 µM | SF-539 > 100 µM | SNB-19 > 100 µM | SR > 100 µM | UACC-257 > 100 µM

CCOC(=O)C1=C(OC(OCC)C(CC)[Se]c2ccccc2)CCCC1 (stereo unspecified)
inactive: A498 > 100 µM | EKVX 34.4 µM | HCC 2998 13.4 µM | HCT-116 17.5 µM | HOP-62 54.2 µM | KM12 > 100 µM | LOX IMVI 4.54 µM | M14 15.6 µM | M19-MEL 15.6 µM | Malme-3M 16.9 µM | NCI-H23 10.9 µM | OVCAR-4 14.5 µM | RXF 393 20.5 µM | SF-539 17.8 µM | SNB-19 40.6 µM | UACC-257 35 µM

CC1=C(c2ccccc2)CON(c2ccccc2)C1
inactive: EKVX 46.6 µM | HCC 2998 67.5 µM | HCT-116 24.7 µM | HOP-62 66.2 µM | KM12 22.7 µM | LOX IMVI 30.8 µM | M14 33.4 µM | M19-MEL 38.7 µM | Malme-3M 56.4 µM | NCI-H23 51.5 µM | OVCAR-4 > 100 µM | RXF 393 16.9 µM | SF-539 40.6 µM | SNB-19 39.4 µM | SR 31.3 µM | UACC-257 40.8 µM

NCCCNC(=O)c1csc(NC(=O)c2csc(NC(=O)CCCN)n2)n1
inactive: A498 > 100 µM | EKVX > 100 µM | HCC 2998 > 100 µM | HCT-116 > 100 µM | HOP-62 > 100 µM | KM12 > 100 µM | M14 > 100 µM | M19-MEL > 100 µM | Malme-3M > 100 µM | NCI-H23 > 100 µM | OVCAR-4 18.7 µM | SF-539 > 100 µM | SR > 100 µM | UACC-257 > 100 µM

CCOC(=O)CNC(=O)OCc1ccccc1
inactive: A498 > 100 µM | HCC 2998 > 100 µM | HCT-116 > 100 µM | HOP-62 > 100 µM | KM12 > 100 µM | LOX IMVI > 100 µM | M14 > 100 µM | M19-MEL > 100 µM | Malme-3M > 100 µM | NCI-H23 > 100 µM | SF-539 > 100 µM | SNB-19 > 100 µM | UACC-257 > 100 µM

C1=CC=C2NCCC/N=C3/C=CC=CC=C3NCCC/N=C\2C=C1
inactive: A498 > 100 µM | EKVX > 100 µM | HCC 2998 > 100 µM | HCT-116 > 100 µM | HOP-62 > 100 µM | KM12 > 100 µM | LOX IMVI > 100 µM | M14 > 100 µM | M19-MEL > 100 µM | OVCAR-4 > 100 µM | SF-539 > 100 µM | SNB-19 > 100 µM

CC(=O)Nc1ccc(C(=O)N2N=C(C)/C(=C/c3cccc([N+](=O)[O-])c3)C2=O)cc1
inactive: EKVX > 100 µM | HCC 2998 > 100 µM | HCT-116 > 100 µM | HOP-62 > 100 µM | KM12 > 100 µM | LOX IMVI > 100 µM | M14 > 100 µM | M19-MEL > 100 µM | Malme-3M > 100 µM | NCI-H23 > 100 µM | OVCAR-4 > 100 µM | SF-539 > 100 µM | SNB-19 > 100 µM | SR > 100 µM | UACC-257 > 100 µM

COC1CC2C3/C(=N/Nc4ccc([N+](=O)[O-])cc4[N+](=O)[O-])CCC2(C)C3C1 (stereo unspecified)
inactive: A498 > 10 µM | HCC 2998 > 10 µM | HCT-116 > 100 µM | HOP-62 > 10 µM | KM12 > 100 µM | LOX IMVI > 10 µM | M14 > 10 µM | M19-MEL > 10 µM | Malme-3M > 10 µM | NCI-H23 > 10 µM | OVCAR-4 > 10 µM | SF-539 > 10 µM | SNB-19 > 10 µM | SR 37.1 µM | UACC-257 > 100 µM

O=C(O)CCCNS(=O)(=O)c1ccccc1
inactive: A498 > 100 µM | EKVX > 100 µM | HCC 2998 > 100 µM | KM12 > 100 µM | LOX IMVI > 100 µM | M14 > 100 µM | M19-MEL > 100 µM | Malme-3M > 100 µM | NCI-H23 > 100 µM | OVCAR-4 > 100 µM | RXF 393 > 100 µM | SF-539 > 100 µM | SNB-19 > 100 µM | UACC-257 > 100 µM
